The values below are quoted from earlier work in patent US20250255825A1, “POLYMER-LIPID NANOCOMPLEX FOR ENHANCED AQUEOUS SOLUBILISATION AND ABSORPTION OF HYDROPHOBIC ACTIVE COMPOUNDS” (priority 2019, published 2025).

For series [1] the following is noted: partition coefficient octanol/water.
Series [2] has as its system malaria parasitaemia in the blood. The following applies: reported value for un-formulated LUM.
Test in series [3]: not given
The source holds these as a separate data set.

Like-named read-outs stand apart in the source and are kept apart here.

As to `CCCCN(CCCC)CC(O)c1cc(Cl)cc2c1-c1ccc(Cl)cc1/C2=C/c1ccc(Cl)cc1` (racemic) [Lumefantrine], in the series with plasma proteins, the protein bound is 99.7%. Also, the “Log P” value in series [1] was 9. For the setting “in vivo”, the “half-life (T½)” value is 96 to 120 h. Further, for the setting “orally administered”, the “highest concentration (Cmax) in the blood” value was 7000 ng/mL and the “time to reach the highest concentration (Tmax)” value is on record as “about 6 hours”. Also, in series [2], the “effective dose (ED90) to clear 90% of parasitaemia in the blood” value is 12.01 mg/kg.

Regarding `C=C(C)[C@@H]1CCC(C)=C[C@H]1c1c(O)cc(CCCCC)cc1O` [Cannabidiol], the bioavailability in series [3] (inhalation) is 11-45%; in series [3] (orally), 13-19%.
